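96-well plates; 48 h exposure; 5 concentrations. Endpoints by linear interpolation between flanking doses. Not reached: highest tested concentration assigned. TGI denotes the concentration required for complete inhibition of growth.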
Legend:
Assay in all cases: NCI tumour cell line growth inhibition, 48 h
SNB-19 CNS = tested on: SNB-19 CNS
EKVX NSCLC = tested on: EKVX NSCLC
HCT-15 colon = tested on: HCT-15 colon
CCRF-CEM leukemia = tested on: CCRF-CEM leukemia
M14 melanoma = tested on: M14 melanoma
TK-10 renal = tested on: TK-10 renal
SK-MEL-28 melanoma = tested on: SK-MEL-28 melanoma
A549 NSCLC = tested on: A549 NSCLC
SNB-75 CNS = tested on: SNB-75 CNS
HL-60(TB) leukemia = tested on: HL-60(TB) leukemia
IGROV1 ovarian = tested on: IGROV1 ovarian
OVCAR-8 ovarian = tested on: OVCAR-8 ovarian
U251 CNS = tested on: U251 CNS
UACC-62 melanoma = tested on: UACC-62 melanoma
OVCAR-5 ovarian = tested on: OVCAR-5 ovarian
MDA-MB-435 = tested on: MDA-MB-435
CAKI-1 renal = tested on: CAKI-1 renal
KM12 colon = tested on: KM12 colon
NCI-H226 lung = tested on: NCI-H226 lung
DU-145 prostate = tested on: DU-145 prostate
HOP-92 NSCLC = tested on: HOP-92 NSCLC
HCT-116 colon = tested on: HCT-116 colon
UACC-257 melanoma = tested on: UACC-257 melanoma
NCI-H522 lung = tested on: NCI-H522 lung
786-0 renal = tested on: 786-0 renal
MALME-3M melanoma = tested on: MALME-3M melanoma
NCI/ADR-RES ovarian = tested on: NCI/ADR-RES ovarian
COLO 205 colon = tested on: COLO 205 colon
BT-549 breast = tested on: BT-549 breast
MDA-MB-231 breast = tested on: MDA-MB-231 breast
HS 578T breast = tested on: HS 578T breast
HT29 colon = tested on: HT29 colon
OVCAR-3 ovarian = tested on: OVCAR-3 ovarian
LOX IMVI melanoma = tested on: LOX IMVI melanoma
RPMI-8226 leukemia = tested on: RPMI-8226 leukemia
NCI-H460 lung = tested on: NCI-H460 lung
HOP-62 NSCLC = tested on: HOP-62 NSCLC
SR leukemia = tested on: SR leukemia
HCC-2998 colon = tested on: HCC-2998 colon
K-562 leukemia = tested on: K-562 leukemia
NCI-H23 lung = tested on: NCI-H23 lung
PC-3 prostate = tested on: PC-3 prostate
MDA-N = tested on: MDA-N
UO-31 renal = tested on: UO-31 renal
SK-OV-3 ovarian = tested on: SK-OV-3 ovarian
SK-MEL-5 melanoma = tested on: SK-MEL-5 melanoma
SK-MEL-2 melanoma = tested on: SK-MEL-2 melanoma
A498 renal = tested on: A498 renal
MCF7 breast = tested on: MCF7 breast
SN12C renal = tested on: SN12C renal
T-47D breast = tested on: T-47D breast
SF-268 CNS = tested on: SF-268 CNS
SW-620 colon = tested on: SW-620 colon
OVCAR-4 ovarian = tested on: OVCAR-4 ovarian
ACHN renal = tested on: ACHN renal
SF-539 CNS = tested on: SF-539 CNS
RXF 393 renal = tested on: RXF 393 renal
SF-295 CNS = tested on: SF-295 CNS
DMS 273 small cell lung = tested on: DMS 273 small cell lung
XF 498 CNS = tested on: XF 498 CNS
LXFL 529 NSCLC = tested on: LXFL 529 NSCLC
SNB-78 CNS = tested on: SNB-78 CNS
KM20L2 colon = tested on: KM20L2 colon
DLD-1 colon = tested on: DLD-1 colon
M19-MEL melanoma = tested on: M19-MEL melanoma
MOLT-4 leukemia = tested on: MOLT-4 leukemia

Measured: TGI

[N-]=[N+]=NCC(=O)c1c[nH]c(=O)[nH]c1=O
not listed: DMS 273 small cell lung | XF 498 CNS | LXFL 529 NSCLC | SNB-78 CNS | KM20L2 colon | DLD-1 colon | M19-MEL melanoma | MOLT-4 leukemia
> 100 µM: all other assays above

Nc1ccc(N=Nc2ccc(-c3ccc(N=Nc4c(S(=O)(=O)O)cc5cc(S(=O)(=O)O)c(N=Nc6ccc([N+](=O)[O-])cc6)c(N)c5c4O)cc3)cc2)c2cc(S(=O)(=O)O)ccc12
not listed: MDA-MB-435 | DU-145 prostate | NCI/ADR-RES ovarian | BT-549 breast | MDA-MB-231 breast | HS 578T breast | PC-3 prostate | MDA-N | MCF7 breast | T-47D breast
> 100 µM: all other assays above

CCOc1ccc(-n2c(=O)c3nn4c(=O)n(-c5ccc(OCC)cc5)c(=O)c4nn3c2=O)cc1
75.7 µM: SNB-75 CNS
67.9 µM: A498 renal
not listed: CCRF-CEM leukemia | DMS 273 small cell lung | XF 498 CNS | LXFL 529 NSCLC | SNB-78 CNS | KM20L2 colon | DLD-1 colon | M19-MEL melanoma
> 100 µM: all other assays above
